This note sets out measurements from patent US6858393B1, “Chain terminators for DNA synthesis” (Stratagene California, priority 2002, dated 2005).

This experiment deals with DNA polymerase (JDF-3 P41OL/A485T). The experiment in a line: Assay for incorporation of chain terminators (primer extension, denaturing PAGE on ABI 377 sequencer). It is filed as biochemical. To be noted: for terminator/dNTP ratio giving a similar pattern (signal strength and length): FIG. 8, ddATP lane 2, PME-App lane 3, dNTPs each at 50 μM, 25 cycles. As for the experimental part: Reactions (20 μl) consisted of 0.5 pmol fluorescein-labeled primer pFI-20, 1 pmol pBluescript II, 5 U DNA polymerase (JDF-3 P41OL/A485T), all four dNTPs (each at 50 μM) and varying concentrations of only ddATP or PME-App in 20 mM Tris pH 8.8, 10 mM (NH4)2SO4, and 2 mM MgSO4. Reactions were incubated in a Perkin-Elmer 9600 for 25 cycles as follows: 95° C. for 30 s, 50° C. for 30 s and 72° C. for 4 min. The reactions were quenched with ice-cold 0.2 M EDTA (final concentration), dried, and the pellets dissolved in a 3:1 formamide: EDTA/blue dextran. Reactions were then analyzed by 6% denaturing PAGE on an ABI 377 sequencer.
The relative ratio can be determined more exactly by repeating the reactions over a narrower range of ratios.

The structures appear in SMILES notation.

Turning to `Nc1ncnc2c1ncn2[C@H]1CC[C@@H](COP(=O)(O)OP(=O)(O)OP(=O)(O)O)O1` [ddATP], the “terminator/dNTP ratio giving a similar pattern (signal strength and length)” value was 1/10. Moreover, the “relative incorporation efficiency of ddATP versus PME-App” value (ddATP better than PME-App, from comparison of lane patterns in FIG. 8, all four dNTPs each at 50 μM) is 2 fold.
In the case of `Nc1ncnc2c1ncn2CCOCP(=O)(O)OP(=O)(O)OP(=O)(O)O` [PME-App, PME-adenine diphosphate], the “terminator/dNTP ratio giving a similar pattern (signal strength and length)” value is listed as 1/5.
